Data published in EP4729529A1, “PREPARATION OF PEPTIDE INHIBITOR OF INTERLEUKIN-23 RECEPTOR AND USE THEREOF” (Xizang Haisco Pharmaceutical Co., Ltd., priority 2023, dated 2024).
Starred links: 1 amine or outer side, 2 acyl side, 3 side chain; linkers in the order of their positions; H or OH if unused. Positions of bridges follow the written chain, without caps; N, C: chain ends. Non-standard residues stand in square brackets, D forms with d. Residues, ends and D or L forms follow the SMILES beside them. Groups on a side chain read outwards from the residue. *: point of attachment. Phe(4-OC2H4NH2,2,3-(CH2)3) = NCCOc1ccc(C[C@H](N)C(=O)O)c2c1CCC2; Trp(7-cPr) = N[C@@H](Cc1c[nH]c2c(C3CC3)cccc12)C(=O)O; X4 = COCCOCCOCCOCCOCCOCCOCCOCCOCCOCCOCCOCCOCC(=O)*; NH(CH2CH2O)4CH2CO = O=C(COCCOCCOCCOCCN[*:1])[*:2]; Trp(7-Me) = Cc1cccc2c(C[C@H](N)C(=O)O)c[nH]c12; X6 = COCCOCCOCCOCCOCCOCCOCCOCCOCCOCC(=O)*; γGlu = O=C(O)[C@H](CCC(=O)[*:2])N[*:1]; 2Nal = N[C@@H](Cc1ccc2ccccc2c1)C(=O)O; X1 = O=C(C(N[*:1])C1(S[*:3])CC1)[*:2]; Thp(SO2) = NC1(C(=O)O)CCS(=O)(=O)CC1; AEF = NCCOc1ccc(C[C@H](N)C(=O)O)cc1; Adipoyl = O=C(CCCCC(=O)[*:2])[*:1]; 3Pal = N[C@@H](Cc1cccnc1)C(=O)O; Pen = CC(C)(S)[C@H](N)C(=O)O; Thp = NC1(C(=O)O)CCOCC1; AEEA = NCCOCCOCC(=O)O; AEA = NCCOCC(=O)O; Sar = CNCC(=O)O

Target: T1, IL-23α/IL-12β and IL-23R (Homo sapiens, UniProt Q5VWK5)
T1 construct: purchased ACRO ILR-H82F3 (IL-23R); ILB-H52W5 (IL-23α/IL-12β)
T1 sequence (Q5VWK5 24-353 limits assumed): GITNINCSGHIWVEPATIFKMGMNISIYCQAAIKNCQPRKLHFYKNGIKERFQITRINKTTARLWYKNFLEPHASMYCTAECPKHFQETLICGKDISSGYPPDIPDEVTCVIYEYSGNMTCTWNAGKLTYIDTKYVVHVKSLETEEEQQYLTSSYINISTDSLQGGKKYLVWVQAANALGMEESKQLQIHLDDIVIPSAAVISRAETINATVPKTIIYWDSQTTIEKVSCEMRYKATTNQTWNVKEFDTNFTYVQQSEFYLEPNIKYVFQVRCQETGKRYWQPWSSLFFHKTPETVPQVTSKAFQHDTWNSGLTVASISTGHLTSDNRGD
Experiment: IL-23α/IL-12β and IL-23R binding assay (TR-FRET/HTRF)
Conditions: inhibition of the binding of IL-23α/IL-12β to IL-23R, TR-FRET; both proteins 0.3 nM
Protocol: 1. IL-23α/IL-12β and IL-23R binding assay
Compounds were tested for their inhibition on the binding of IL-23α/IL-12β to IL-23R by the TR-FRET method. Solutions of proteins IL-23α/IL-12β (ACRO, Cat# ILB-H52W5) and IL-23R (ACRO, Cat# ILR-H82F3) were prepared in reaction buffer PPI (PerkinElmer, Cat# 61DB10RDF). The final concentrations of IL-23α/IL-12β and IL-23R in the reaction mixture were both 0.3 nM. Positive reference Guselkumab was 3-fold diluted from an initial concentration of 30 nM, with 10 doses. 0.1 µL of the positive reference diluted in the reaction buffer was delivered to a 384-well plate (Grenier, Cat# 784075) by the acoustic liquid delivery technique (Echo 655), and the plate was centrifuged at 1000 rpm for 1 minute. 2.5 µL of IL-23α/IL-12β solution was transferred into the 384-well reaction plate, and the plate was centrifuged at 1000 rpm for 1 minute, and incubated at 25°C for 60 minutes. 2.5 µL of IL-23R solution was transferred into the 384-well reaction plate, and the plate was centrifuged at 1000 rpm for 1 minute. 5 µL of Streptavidin-Tb cryptate and Anti 6HIS-d2 detection mixture was transferred into the 384-well reaction plate, and the plate was centrifuged at 1000 rpm for 1 minute, and incubated at 25°C for 60 minutes. Finally, the HTRF signal (Ratio 665/620 nm) was read with a BMG high-throughput drug screening multifunctional microplate reader. IC50 values were obtained by nonlinear regression curve fitting using GraphPad Prism software.

SMILES | IC50 [nM]
CC(=O)NCCCC[C@@H]1NC(=O)[C@H](Cc2c[nH]c3c(C)cccc23)NC(=O)[C@H]([C@@H](C)O)NC(=O)[C@H](Cc2c[nH]cn2)NC(=O)[C@H]2NC(=O)COCCNC(=O)CC[C@@H](C(=O)N[C@@H](CC(N)=O)C(=O)N[C@@H](Cc3cccnc3)C(=O)N(C)CC(N)=O)NC(=O)C3(CCOCC3)NC(=O)[C@H](Cc3ccc4ccccc4c3)NC(=O)[C@H](Cc3ccc(OCCN)cc3)NC(=O)[C@@H](NC1=O)C(C)(C)SSC2(C)C [Compound 38] ([AEA][Pen]HT[Trp(7-Me)]K(Ac)[Pen][AEF][2Nal][Thp]EN[3Pal][Sar]-NH2; disulfide 2-7 (inferred); lactam N-11 (inferred)) | 0.212
COCCOCCOCCOCCOCCOCCOCCOCCOCCOCC(=O)N[C@@H]1C(=O)N[C@@H](Cc2c[nH]cn2)C(=O)N[C@@H]([C@@H](C)O)C(=O)N[C@@H](Cc2c[nH]c3c(C4CC4)cccc23)C(=O)N[C@@H](CCC(N)=O)C(=O)N[C@H](C(=O)N[C@@H](Cc2ccc(OCCN)c3c2CCC3)C(=O)N[C@@H](Cc2ccc3ccccc3c2)C(=O)NC2(C(=O)N[C@@H](CCC(=O)O)C(=O)N[C@@H](CC(N)=O)C(=O)N[C@@H](Cc3cccnc3)C(=O)N(C)CC(N)=O)CCS(=O)(=O)CC2)C(C)(C)SSC1(C)C [Compound 39] (X6-[Pen]HT[Trp(7-cPr)]Q[Pen][Phe(4-OC2H4NH2,2,3-(CH2)3)][2Nal][Thp(SO2)]EN[3Pal][Sar]-NH2; disulfide 1-6) | 0.057
COCCOCCOCCOCCOCCOCCOCCOCCOCCOCCOCCOCCOCC(=O)N[C@@H]1C(=O)N[C@@H](Cc2c[nH]cn2)C(=O)N[C@@H]([C@@H](C)O)C(=O)N[C@@H](Cc2c[nH]c3c(C4CC4)cccc23)C(=O)N[C@@H](CCC(N)=O)C(=O)N[C@H](C(=O)N[C@@H](Cc2ccc(OCCN)c3c2CCC3)C(=O)N[C@@H](Cc2ccc3ccccc3c2)C(=O)NC2(C(=O)N[C@@H](CCC(=O)O)C(=O)N[C@@H](CC(N)=O)C(=O)N[C@@H](Cc3cccnc3)C(=O)N(C)CC(N)=O)CCS(=O)(=O)CC2)C(C)(C)SSC1(C)C [Compound 46] (X4-[Pen]HT[Trp(7-cPr)]Q[Pen][Phe(4-OC2H4NH2,2,3-(CH2)3)][2Nal][Thp(SO2)]EN[3Pal][Sar]-NH2; disulfide 1-6) | 0.095
CC(=O)N[C@@H](CCC(=O)NCCOCCOCC(=O)NCCOCCOCC(=O)NCCCC[C@@H]1NC(=O)[C@H](Cc2c[nH]c3c(C4CC4)cccc23)NC(=O)[C@H]([C@@H](C)O)NC(=O)[C@H](Cc2c[nH]cn2)NC(=O)[C@@H](NC(C)=O)C(C)(C)SSC(C)(C)[C@@H](C(=O)N[C@@H](Cc2ccc(OCCN)c3c2CCC3)C(=O)N[C@@H](Cc2ccc3ccccc3c2)C(=O)NC2(C(=O)N[C@@H](CCC(=O)O)C(=O)N[C@@H](CC(N)=O)C(=O)N[C@@H](Cc3cccnc3)C(=O)N(C)CC(N)=O)CCS(=O)(=O)CC2)NC1=O)C(=O)O [Compound 47] (Ac-[Pen]HT[Trp(7-cPr)]K([AEEA-AEEA-γGlu-Ac])[Pen][Phe(4-OC2H4NH2,2,3-(CH2)3)][2Nal][Thp(SO2)]EN[3Pal][Sar]-NH2; disulfide 1-6) | 0.093
C[C@@H](O)[C@@H]1NC(=O)[C@H](Cc2c[nH]cn2)NC(=O)[C@@H](NC(=O)COCCOCCNC(=O)COCCOCCNC(=O)CC[C@H](NC(=O)CCCCC(=O)O)C(=O)O)C(C)(C)SSC(C)(C)[C@@H](C(=O)N[C@@H](Cc2ccc(OCCN)c3c2CCC3)C(=O)N[C@@H](Cc2ccc3ccccc3c2)C(=O)NC2(C(=O)N[C@@H](CCC(=O)O)C(=O)N[C@@H](CC(N)=O)C(=O)N[C@@H](Cc3cccnc3)C(=O)N(C)CC(N)=O)CCS(=O)(=O)CC2)NC(=O)[C@H](CCC(N)=O)NC(=O)[C@H](Cc2c[nH]c3c(C4CC4)cccc23)NC1=O [Compound 48] ({Adipoyl-γGlu-AEEA-AEEA}-[Pen]HT[Trp(7-cPr)]Q[Pen][Phe(4-OC2H4NH2,2,3-(CH2)3)][2Nal][Thp(SO2)]EN[3Pal][Sar]-NH2; disulfide 1-6) | 0.058
CC(=O)N[C@@H]1C(=O)N[C@@H](Cc2c[nH]cn2)C(=O)N[C@@H]([C@@H](C)O)C(=O)N[C@@H](Cc2c[nH]c3c(C4CC4)cccc23)C(=O)N[C@@H](CCCCNC(=O)COCCOCCNC(=O)COCCOCCNC(=O)CC[C@H](NC(=O)CCCCC(=O)O)C(=O)O)C(=O)N[C@H](C(=O)N[C@@H](Cc2ccc(OCCN)c3c2CCC3)C(=O)N[C@@H](Cc2ccc3ccccc3c2)C(=O)NC2(C(=O)N[C@@H](CCC(=O)O)C(=O)N[C@@H](CC(N)=O)C(=O)N[C@@H](Cc3cccnc3)C(=O)N(C)CC(N)=O)CCS(=O)(=O)CC2)C(C)(C)SSC1(C)C [Compound 49] (Ac-[Pen]HT[Trp(7-cPr)]K([AEEA-AEEA-γGlu-Adipoyl])[Pen][Phe(4-OC2H4NH2,2,3-(CH2)3)][2Nal][Thp(SO2)]EN[3Pal][Sar]-NH2; disulfide 1-6) | 0.068
CC(=O)NCCCC[C@@H]1NC(=O)[C@H](Cc2c[nH]c3c(C)cccc23)NC(=O)[C@H]([C@@H](C)O)NC(=O)[C@H](Cc2c[nH]cn2)NC(=O)[C@@H](NC(C)=O)CCCC[C@@H](C(=O)N[C@@H](Cc2ccc(OCCN)c3c2CCC3)C(=O)N[C@@H](Cc2ccc3ccccc3c2)C(=O)NC2(C(=O)N[C@@H](CCC(=O)O)C(=O)N[C@@H](CC(N)=O)C(=O)N[C@@H](Cc3cccnc3)C(=O)N(C)CC(N)=O)CCOCC2)NC1=O [Compound 52] | 0.101
Cc1cccc2c(C[C@@H]3NC(=O)[C@H]([C@@H](C)O)NC(=O)[C@H](Cc4c[nH]cn4)NC(=O)C4NC(=O)COCCOCCOCCOCCNC(=O)CC[C@@H](C(=O)N[C@@H](CC(N)=O)C(=O)N[C@@H](Cc5cccnc5)C(=O)N(C)CC(N)=O)NC(=O)C5(CCS(=O)(=O)CC5)NC(=O)[C@H](Cc5ccc6ccccc6c5)NC(=O)[C@H](Cc5ccc(OCCN)cc5)NC(=O)[C@@H](NC(=O)[C@H](CCC(N)=O)NC3=O)C(C)(C)SSC43CC3)c[nH]c12 [Compound 53] ([NH(CH2CH2O)4CH2CO][X1]HT[Trp(7-Me)]Q[Pen][AEF][2Nal][Thp(SO2)]EN[3Pal][Sar]-NH2; disulfide 2-7; lactam N-11) | 0.065
CC(=O)NC1C(=O)N[C@@H](Cc2c[nH]cn2)C(=O)N[C@@H]([C@@H](C)O)C(=O)N[C@@H](Cc2c[nH]c3c(C4CC4)cccc23)C(=O)N[C@@H](CCC(N)=O)C(=O)NC(C(=O)N[C@@H](Cc2ccc(OCCN)c3c2CCC3)C(=O)N[C@@H](Cc2ccc3ccccc3c2)C(=O)NC2(C(=O)N[C@@H](CCC(=O)O)C(=O)N[C@@H](CC(N)=O)C(=O)N[C@@H](Cc3cccnc3)C(=O)N(C)CC(N)=O)CCS(=O)(=O)CC2)C2(CC2)SSC12CC2 (stereo partly shown) [Compound 54] (Ac-[X1]HT[Trp(7-cPr)]Q[X1][Phe(4-OC2H4NH2,2,3-(CH2)3)][2Nal][Thp(SO2)]EN[3Pal][Sar]-NH2; disulfide 1-6) | 0.091
CC(=O)NC1C(=O)N[C@@H](Cc2c[nH]cn2)C(=O)N[C@@H]([C@@H](C)O)C(=O)N[C@@H](Cc2c[nH]c3c(C)cccc23)C(=O)N[C@@H](CCC(N)=O)C(=O)NC(C(=O)N[C@@H](Cc2ccc(OCCN)c3c2CCC3)C(=O)N[C@@H](Cc2ccc3ccccc3c2)C(=O)NC2(C(=O)N[C@@H](CCC(=O)O)C(=O)N[C@@H](CC(N)=O)C(=O)N[C@@H](Cc3cccnc3)C(=O)N(C)CC(N)=O)CCS(=O)(=O)CC2)C2(CC2)SSC12CC2 (stereo partly shown) [Compound 55] (Ac-[X1]HT[Trp(7-Me)]Q[X1][Phe(4-OC2H4NH2,2,3-(CH2)3)][2Nal][Thp(SO2)]EN[3Pal][Sar]-NH2; disulfide 1-6) | 0.068
